We go through 16 molecules from ChEMBL document CHEMBL1130823, “New tetrahydronaphthalene derivatives as combined thromboxane receptor antagonists and thromboxane synthase inhibitors” (Bioorg Med Chem Lett, 1998).

For orientation: IC50 means the midpoint of a concentration-inhibition curve.

The structures appear in SMILES notation. Where only a bound is given, the exact number is not on record here.

One assay is filed under the species Homo sapiens. Nature of the assay: Inhibitory concentration required for the inhibition of U-46,619 induced aggregation of human platelets. Type of assay: functional.
The species named for the next assay is Oryctolagus cuniculus. Nature of the assay: Inhibition of U-46,619 induced contraction of isolated rabbit saphenous vein. Type of assay: functional. As to conditions: read-out: pA2 (converted).
A further assay concerns the target T1, Thromboxane-A synthase (Homo sapiens, UniProt P24557).
T1 sequence (P24557 whole entry): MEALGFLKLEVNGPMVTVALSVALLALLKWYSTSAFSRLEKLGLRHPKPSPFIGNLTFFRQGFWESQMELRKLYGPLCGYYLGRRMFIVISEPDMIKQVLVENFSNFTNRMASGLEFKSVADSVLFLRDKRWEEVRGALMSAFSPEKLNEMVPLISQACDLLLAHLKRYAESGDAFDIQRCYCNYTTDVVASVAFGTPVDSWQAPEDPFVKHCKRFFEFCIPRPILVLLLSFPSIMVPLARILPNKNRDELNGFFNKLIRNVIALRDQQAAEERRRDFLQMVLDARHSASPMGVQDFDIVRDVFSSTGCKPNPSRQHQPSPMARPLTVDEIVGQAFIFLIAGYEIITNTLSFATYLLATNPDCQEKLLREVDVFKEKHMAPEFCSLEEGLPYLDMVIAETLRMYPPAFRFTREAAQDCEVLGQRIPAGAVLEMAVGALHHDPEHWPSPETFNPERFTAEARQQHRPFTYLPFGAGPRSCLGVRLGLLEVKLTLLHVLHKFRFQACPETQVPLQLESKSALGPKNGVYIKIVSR
Nature of the assay: Anti-synthetase activity against TXA2 synthase in human whole blood assay. Type of assay: tissue-based.

As to `O=C(O)CCc1cc(-c2cccnc2)cc2c1CCC(NS(=O)(=O)c1ccc(Cl)cc1)C2` (stereo not drawn), the half-maximal inhibitory concentration (IC50) in the assay filed under Homo sapiens was 670 nM; against Thromboxane-A synthase it was more than 5000 nM. In the assay listed under Oryctolagus cuniculus, the Kb is 12.6 nM.
Turning to `O=C(O)CCC/C=C\c1cc(Cc2cccnc2)cc2c1CCC(NS(=O)(=O)c1ccc(Cl)cc1)C2` (stereo not drawn), the IC50 came to 90 nM in the assay listed under Homo sapiens and 4200 nM at Thromboxane-A synthase. In the assay filed under Oryctolagus cuniculus, the Kb was 2.51 nM.
The matching figures for `O=C(O)CCC/C=C/c1cc(Cc2cccnc2)cc2c1CCC(NS(=O)(=O)c1ccc(Cl)cc1)C2` (stereo not drawn): 1200 nM, more than 5000 nM and 2 nM.
Turning to `O=C(O)CCc1c(-c2cccnc2)ccc2c1CCC(NS(=O)(=O)c1ccc(Cl)cc1)C2` (stereo not drawn), the IC50 in the assay listed under Homo sapiens is 140 nM; at Thromboxane-A synthase, more than 10000 nM. Moreover, the Kb in the assay listed under Oryctolagus cuniculus was 0.2 nM.
The matching figures for `CCCCCc1c(Cc2cccnc2)cc2c(c1CCC(=O)O)CCC(NS(=O)(=O)c1ccc(Cl)cc1)C2` (stereo not drawn): 270 nM, 6600 nM and 1.58 nM.
Take `CCCc1c(Cc2cccnc2)cc2c(c1CCC(=O)O)CCC(NS(=O)(=O)c1ccc(Cl)cc1)C2` (stereo not drawn): the results for the IC50 in the assay filed under Homo sapiens and against Thromboxane-A synthase were 63 nM and 640 nM, respectively. Moreover, in the assay listed under Oryctolagus cuniculus, the Kb is 3.98 nM.
Consider `O=C(O)CCC/C=C/c1c(Cc2cccnc2)ccc2c1CCC(NS(=O)(=O)c1ccc(Cl)cc1)C2` (stereo not drawn), for which the IC50 in the assay filed under Homo sapiens was determined as 450 nM; at Thromboxane-A synthase it was 1100 nM. For the same molecule, in the assay filed under Oryctolagus cuniculus, the Kb was 1.26 nM.
As for `O=C(O)CC/C=C/c1cc(Cc2cccnc2)cc2c1CCC(NS(=O)(=O)c1ccc(Cl)cc1)C2` (stereo not drawn), the figures for the IC50 in the assay listed under Homo sapiens and on Thromboxane-A synthase were 9 nM and more than 10000 nM, respectively. Moreover, the Kb in the assay filed under Oryctolagus cuniculus is 0.398 nM.
The matching figures for `Cc1c(Cc2cccnc2)cc2c(c1/C=C/CCCC(=O)O)CCC(NS(=O)(=O)c1ccc(Cl)cc1)C2` (stereo not drawn): 460 nM, 2900 nM and 7.94 nM.
On to `Cc1c(Cc2cccnc2)cc2c(c1/C=C\CCCC(=O)O)CCC(NS(=O)(=O)c1ccc(Cl)cc1)C2` (stereo not drawn), for which the IC50 in the assay listed under Homo sapiens turned out to be 1000 nM; against Thromboxane-A synthase, 960 nM. For the same molecule, the Kb in the assay listed under Oryctolagus cuniculus is 10 nM.
Regarding `O=C(O)CCc1c(Cc2cccnc2)ccc2c1CCC(NS(=O)(=O)c1ccc(Cl)cc1)C2` (stereo not drawn), the IC50 in the assay filed under Homo sapiens is 20 nM; against Thromboxane-A synthase, more than 10000 nM. Also, the Kb in the assay filed under Oryctolagus cuniculus is 0.316 nM.
Regarding `O=C(O)CCc1c2c(cc(Cc3cccnc3)c1-c1ccccc1)CC(NS(=O)(=O)c1ccc(Cl)cc1)CC2` (stereo not drawn), the figures for the IC50 in the assay filed under Homo sapiens and at Thromboxane-A synthase were 180 nM and more than 10000 nM, respectively. The Kb in the assay filed under Oryctolagus cuniculus is 0.794 nM.
The matching figures for `Cc1c(Cc2cccnc2)cc2c(c1CCC(=O)O)CCC(NS(=O)(=O)c1ccc(Cl)cc1)C2` (stereo not drawn): 610 nM, 850 nM and 158 nM.
For `O=C(O)CCC/C=C\c1c(Cc2cccnc2)ccc2c1CCC(NS(=O)(=O)c1ccc(Cl)cc1)C2` (stereo not drawn), in that order: 160 nM, 350 nM and 0.2 nM.
The matching figures for `O=C(O)CC/C=C/c1c(Cc2cccnc2)ccc2c1CCC(NS(=O)(=O)c1ccc(Cl)cc1)C2` (stereo not drawn): 47 nM, 1400 nM and 0.00794 nM.
Consider `O=C(O)CCc1cc(Cc2cccnc2)cc2c1CCC(NS(=O)(=O)c1ccc(Cl)cc1)C2` (stereo not drawn), for which the figures for the IC50 in the assay filed under Homo sapiens and at Thromboxane-A synthase were 7 nM and 1100 nM, respectively. Also, the Kb in the assay listed under Oryctolagus cuniculus is 0.2 nM.
